Biological target: T1, hM1 (human Muscarinic receptor subtype 1) (Homo sapiens, UniProt P11229)
T1 construct: expressed in transfected cells; host or cells: CHO cells (Chinese hamster ovary cells, ATCC)
T1 sequence (P11229 1-460): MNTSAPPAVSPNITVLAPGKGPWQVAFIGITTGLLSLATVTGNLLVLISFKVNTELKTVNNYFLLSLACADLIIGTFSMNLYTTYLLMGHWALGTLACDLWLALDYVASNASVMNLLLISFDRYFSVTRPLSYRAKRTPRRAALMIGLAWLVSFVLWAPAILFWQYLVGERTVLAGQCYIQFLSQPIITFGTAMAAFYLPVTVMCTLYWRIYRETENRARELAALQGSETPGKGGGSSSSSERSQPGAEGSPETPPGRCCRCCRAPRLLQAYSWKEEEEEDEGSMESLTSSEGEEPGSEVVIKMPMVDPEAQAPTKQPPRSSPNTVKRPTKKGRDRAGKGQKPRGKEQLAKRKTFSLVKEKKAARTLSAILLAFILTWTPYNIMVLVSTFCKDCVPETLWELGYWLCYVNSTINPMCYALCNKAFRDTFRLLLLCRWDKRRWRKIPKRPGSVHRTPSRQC
Test: Human M1 calcium mobilization FLIPR assay
Format: cell-based
Details: hM1 expressed in CHO cells, intracellular Ca2+ release, read-out: hM1 EC50
Protocol: Human M1, rat M1, human M3 and human M5 Calcium Mobilization FLIPR™ Assay
The compound activity in the present invention (EC50 or IC50) is measured using a 384 plate-based imaging assay that monitors drug induced intracellular Ca^2+ release in whole cells. Activation of hM1 (human Muscarinic receptor subtype 1, gene bank access NM_000738), rM1 (rat Muscarinic receptor subtype 1, gene bank access NM_080773), hM3 (human Muscarinic receptor subtype 3, gene bank access NM_000740NM_000740) and hM5 (human Muscarinic receptor subtype 5, gene bank access NM_0121258), receptors expressed in CHO cells (Chinese hamster ovary cells, ATCC) is quantified in a Molecular Devices FLIPR II™ instrument as an increase in fluorescent signal. Inhibition of hM3 and hM5 by compounds is determined by the decrease in fluorescent signal in response to 2 nM acetylcholine activation.
Prior to experiment, the cell culture medium is removed from the plates by inversion. […] Plates are incubated at 37° C. for 60 minutes prior to start the experiment. The incubation is terminated by washing the cells four times in assay buffer, leaving a residual 25 μl buffer per well. Cell plates are then transferred to the FLIPR, ready for compound additions.
The day of experiment, acetylcholine and compounds are diluted in assay buffer in three-fold concentration range (10 points serial dilution) for addition by FLIPR instrument. For all calcium assays, a baseline reading is taken for 10 seconds followed by the addition of 12.5 μl of compounds, resulting in a total well volume of 37.5 μl. Data is collected every second for 60 pictures and then every 6 seconds for 20 pictures prior to the addition of agonist. For hM3 and hM5, before agonist addition, a second baseline reading is taken for 10 seconds followed by the addition of 12.5 μl of agonist or buffer, producing a final volume of 50 μl. After agonist stimulation, the FLIPR continues to collect data every second for 60 pictures and then every 6 seconds for 20 pictures. The fluorescence emission is read using filter 1 (emission 510-570 nm) by the FLIPR on board CCD camera.
Calcium mobilization output data are calculated as the maximal relative fluorescence unit (RFU) minus the minimal value for both compound and agonist reading frame (except for hM1 and rM1 using only the maximal RFU). Data are analyzed using sigmoidal fits of a non-linear curve-fitting program (XLfit version 4.2.2 Excel add-in version 4.2.2 build 18 math 1Q version 2.1.2 build 18). All pEC50 and plC50 values are reported as arithmetic means ±standard error of mean of ‘n’ independent experiments.

**Q.** With CCCOC(=O)N1CCC(C)(N2CCC(n3c(=O)[nH]c4ccc(F)cc43)CC2)C1 (single isomer, unassigned) [Example 64, propyl 3-(4-(6-fluoro-2-oxo-2,3-dihydro-1H-benzo[d]imidazol-1-yl)piperidin-1-yl)-3-methylpyrrolidine-1-carboxylate] as the molecule, how does the EC50 read?
**A.** 80.1 nM

**Q.** How did the EC50 turn out when CC(C)OC(=O)N1CCC(C)(N2CCC(n3c(=O)[nH]c4ccccc43)CC2)C1 (centres unmarked) [Example 3, isopropyl 3-methyl-3-(4-(2-oxo-2,3-dihydro-1H-benzo[d]imidazol-1-yl)piperidin-1-yl)pyrrolidine-1-carboxylate] was run?
**A.** 108 nM

**Q.** Which EC50 does the source give for CC#CCOC(=O)N1CCC(C)(N2CCC(n3c(=O)[nH]c4cc(C)ccc43)CC2)C1 (single isomer, unassigned) [Example 19, but-2-ynyl 3-methyl-3-(4-(5-methyl-2-oxo-2,3-dihydro-1H-benzo[d]imidazol-1-yl)piperidin-1-yl)pyrrolidine-1-carboxylate] here?
**A.** 324 nM

**Q.** For COC(=O)N1CCC(C)(N2CCC(N3C(=O)Cc4cc(F)ccc43)CC2)C1 (racemic) [Example 78, methyl 3-(4-(5-fluoro-2-oxoindolin-1-yl)piperidin-1-yl)-3-methylpyrrolidine-1-carboxylate], which EC50 is on record?
**A.** 76.2 nM

**Q.** With CCOC(=O)N1CCC(C)(N2CCC(n3c(=O)[nH]c4cc(C)ccc43)CC2)C1 (single isomer, unassigned) [Example 13, ethyl 3-methyl-3-(4-(5-methyl-2-oxo-2,3-dihydro-1H-benzo[d]imidazol-1-yl)piperidin-1-yl)pyrrolidine-1-carboxylate] as the molecule, how does the EC50 read?
**A.** 70.1 nM

**Q.** For CCOC(=O)N1CCC(C)(N2CCC(N3C(=O)C4(CC4)c4ccc(F)cc43)CC2)C1 (centres unmarked) [Example 87, ethyl 3-(4-(6′-fluoro-2′-oxospiro[cyclopropane-1,3′-indoline]-1′-yl)piperidin-1-yl)-3-methylpyrrolidine-1-carboxylate], which EC50 is on record?
**A.** 125 nM

**Q.** For C#CCOC(=O)N1CCC(C)(N2CCC(n3c(=O)[nH]c4cc(C)ccc43)CC2)C1 (single isomer, unassigned) [Example 42, prop-2-ynyl 3-methyl-3-(4-(5-methyl-2-oxo-2,3-dihydro-1H-benzo[d]imidazol-1-yl)piperidin-1-yl)pyrrolidine-1-carboxylate], which EC50 is on record?
**A.** 235 nM

**Q.** CC(C)OC(=O)N1CCC(C)(N2CCC(n3c(=O)[nH]c4cc(F)ccc43)CC2)C1 (centres unmarked) [Example 9, isopropyl 3-(4-(5-fluoro-2-oxo-2,3-dihydro-1H-benzo[d]imidazol-1-yl)piperidin-1-yl)-3-methylpyrrolidine-1-carboxylate] was tested. Which EC50 did it give?
**A.** 124 nM

**Q.** For CC(C)OC(=O)N1CCC(C)(N2CCC(n3c(=O)[nH]c4ccc(F)cc43)CC2)C1 (single isomer, unassigned) [Example 65, isopropyl 3-(4-(6-fluoro-2-oxo-2,3-dihydro-1H-benzo[d]imidazol-1-yl)piperidin-1-yl)-3-methylpyrrolidine-1-carboxylate], which EC50 is on record?
**A.** 104 nM

**Q.** CCCOC(=O)N1CCC(C)(N2CCC(n3c(=O)[nH]c4ccc(F)cc43)CC2)C1 (single isomer, unassigned) [Example 63, propyl 3-(4-(6-fluoro-2-oxo-2,3-dihydro-1H-benzo[d]imidazol-1-yl)piperidin-1-yl)-3-methylpyrrolidine-1-carboxylate] was tested. Which EC50 did it give?
**A.** 344 nM

**Q.** How did the EC50 turn out when COC(=O)N1CCC(C)(N2CCC(n3c(=O)[nH]c4cc(F)c(F)cc43)CC2)C1 (single isomer, unassigned) [Example 59, methyl 3-(4-(5,6-difluoro-2-oxo-2,3-dihydro-1H-benzo[d]imidazol-1-yl)piperidin-1-yl)-3-methylpyrrolidine-1-carboxylate] was run?
**A.** 77.6 nM

**Q.** Which EC50 does the source give for CC#CCOC(=O)N1CCC(C)(N2CCC(n3c(=O)[nH]c4cc(F)ccc43)CC2)C1 (single isomer, unassigned) [Example 35, but-2-ynyl 3-(4-(5-fluoro-2-oxo-2,3-dihydro-1H-benzo[d]imidazol-1-yl)piperidin-1-yl)-3-methylpyrrolidine-1-carboxylate] here?
**A.** 56.9 nM

**Q.** Which EC50 does the source give for Cc1ccc2c(c1)[nH]c(=O)n2C1CCN(C2(C)CCN(C(=O)OCCF)C2)CC1 (single isomer, unassigned) [Example 29, 2-fluoroethyl 3-methyl-3-(4-(5-methyl-2-oxo-2,3-dihydro-1H-benzo[d]imidazol-1-yl)piperidin-1-yl)pyrrolidine-1-carboxylate] here?
**A.** 166 nM

**Q.** CCOC(=O)N1CCC(C)(N2CCC(N3C(=O)Cc4c3cc(F)cc4C(C)(C)C)CC2)C1 (centres unmarked) [Example 85, ethyl 3-(4-(4-tert-butyl-6-fluoro-2-oxoindolin-1-yl)piperidin-1-yl)-3-methylpyrrolidine-1-carboxylate] was tested. Which EC50 did it give?
**A.** 1470 nM

**Q.** Which EC50 does the source give for COC(=O)N1CCC(C)(N2CCC(n3c(=O)[nH]c4ccc(F)cc43)CC2)C1 (single isomer, unassigned) [Example 51, methyl 3-(4-(6-fluoro-2-oxo-2,3-dihydro-1H-benzo[d]imidazol-1-yl)piperidin-1-yl)-3-methylpyrrolidine-1-carboxylate] here?
**A.** 57.1 nM

**Q.** How did the EC50 turn out when CC1(N2CCC(n3c(=O)[nH]c4ccc(F)cc43)CC2)CCN(C(=O)OCCF)C1 (single isomer, unassigned) [Example 54, 2-fluoroethyl 3-(4-(6-fluoro-2-oxo-2,3-dihydro-1H-benzo[d]imidazol-1-yl)piperidin-1-yl)-3-methylpyrrolidine-1-carboxylate] was run?
**A.** 92.8 nM

**Q.** With COC(=O)N1CCC(C)(N2CCC(n3c(=O)[nH]c4ccccc43)CC2)C1 (single isomer, unassigned) [Example 30, methyl 3-methyl-3-(4-(2-oxo-2,3-dihydro-1H-benzo[d]imidazol-1-yl)piperidin-1-yl)pyrrolidine-1-carboxylate] as the molecule, how does the EC50 read?
**A.** 108 nM

**Q.** Which EC50 does the source give for COC(=O)N1CCC(C)(N2CCC(N3C(=O)Cc4ccc(F)cc43)CC2)C1 (single isomer, unassigned) [Example 77, methyl 3-(4-(6-fluoro-2-oxoindolin-1-yl)piperidin-1-yl)-3-methylpyrrolidine-1-carboxylate] here?
**A.** 94.5 nM

**Q.** How did the EC50 turn out when COC(=O)N1CCC(C)(N2CCC(N3C(=O)Cc4ccccc43)CC2)C1 (centres unmarked) [Example 71, methyl 3-methyl-3-(4-(2-oxoindolin-1-yl)piperidin-1-yl)pyrrolidine-1-carboxylate] was run?
**A.** 123 nM

**Q.** Which EC50 does the source give for CC1(N2CCC(n3c(=O)[nH]c4cc(F)ccc43)CC2)CCN(C(=O)OCCF)C1 (single isomer, unassigned) [Example 38, 2-fluoroethyl 3-(4-(5-fluoro-2-oxo-2,3-dihydro-1H-benzo[d]imidazol-1-yl)piperidin-1-yl)-3-methylpyrrolidine-1-carboxylate] here?
**A.** 112 nM

**Q.** How did the EC50 turn out when CC1(N2CCC(n3c(=O)[nH]c4cc(F)c(F)cc43)CC2)CCN(C(=O)OCCF)C1 (single isomer, unassigned) [Example 62, 2-fluoroethyl 3-(4-(5,6-difluoro-2-oxo-2,3-dihydro-1H-benzo[d]imidazol-1-yl)piperidin-1-yl)-3-methylpyrrolidine-1-carboxylate] was run?
**A.** 79.8 nM

**Q.** For CC#CCOC(=O)N1CCC(C)(N2CCC(n3c(=O)[nH]c4ccc(C)cc43)CC2)C1 (single isomer, unassigned) [Example 18, but-2-ynyl 3-methyl-3-(4-(6-methyl-2-oxo-2,3-dihydro-1H-benzo[d]imidazol-1-yl)piperidin-1-yl)pyrrolidine-1-carboxylate], which EC50 is on record?
**A.** 158 nM

**Q.** Which EC50 does the source give for COC(=O)N1CCC(C)(N2CCC(n3c(=O)[nH]c4cc(C)ccc43)CC2)C1 (single isomer, unassigned) [Example 46, methyl 3-methyl-3-(4-(5-methyl-2-oxo-2,3-dihydro-1H-benzo[d]imidazol-1-yl)piperidin-1-yl)pyrrolidine-1-carboxylate] here?
**A.** 132 nM

Reference: patent publication US20090221642A1, “MUSCARINIC RECEPTOR AGONISTS, COMPOSITIONS, METHODS OF TREATMENT THEREOF, AND PROCESSES FOR PREPARATION THEREOF-176” (AstraZeneca AB, priority 2008, published 2009)
